Laboratory results reported in ChEMBL document CHEMBL1201862, “PubChem BioAssay data set” (2004).
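Five concentrations, 48 hours, 96-well plates. Here, GI50 denotes the concentration required for 50% inhibition of growth.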 The source made the active and inactive calls. Cut-off read from the data, not from the text of the source: active = GI50 up to about 1.1 µM and inactive = higher.

What was measured:
Test in all cases: NCI-60 cell line screen, 48 h
ACHN = test system: ACHN
BT-549 = test system: BT-549
HCC 2998 = test system: HCC 2998
M14 = test system: M14
MDA-MB-231 = test system: MDA-MB-231
Malme-3M = test system: Malme-3M
OVCAR-3 = test system: OVCAR-3
RPMI-8226 = test system: RPMI-8226
SK-MEL-28 = test system: SK-MEL-28
U-251 = test system: U-251
UACC-257 = test system: UACC-257
UACC-62 = test system: UACC-62
UO-31 = test system: UO-31
OVCAR-5 = test system: OVCAR-5
OVCAR-8 = test system: OVCAR-8
SF-539 = test system: SF-539
Hs-578T = test system: Hs-578T

Measured: GI50

C=CCOC(=O)C1=C(CCC[C@@H](C)O[Si](C)(C)C(C)(C)C)N=C(N)N2[C@H](CCO)CC[C@@H]12
inactive: ACHN 17.7 µM | BT-549 21.8 µM | HCC 2998 18.7 µM | M14 13.9 µM | MDA-MB-231 15.3 µM | Malme-3M 18 µM | OVCAR-3 11.1 µM | RPMI-8226 9.44 µM | SK-MEL-28 17.5 µM | U-251 12.3 µM | UACC-257 15.6 µM | UACC-62 15.8 µM | UO-31 16.1 µM

CCOC(=O)COc1cc(-c2ccccc2F)nc2cc3c(cc12)OCO3
inactive: ACHN > 100 µM | BT-549 > 100 µM | HCC 2998 > 100 µM | M14 > 100 µM | MDA-MB-231 > 100 µM | Malme-3M > 100 µM | OVCAR-3 > 10 µM | OVCAR-5 > 100 µM | OVCAR-8 > 100 µM | RPMI-8226 42 µM | SF-539 > 100 µM | SK-MEL-28 > 100 µM | U-251 93.5 µM | UACC-257 > 100 µM | UACC-62 > 100 µM

CCN(CC)CCCNc1n[n+]([O-])c2ccccc2[n+]1[O-]
inactive: ACHN 6.41 µM | BT-549 17.3 µM | HCC 2998 3.46 µM | M14 22.4 µM | MDA-MB-231 6.01 µM | Malme-3M 11.3 µM | OVCAR-3 > 10 µM | OVCAR-5 20.5 µM | OVCAR-8 8.51 µM | RPMI-8226 4.21 µM | SF-539 20.7 µM | SK-MEL-28 63.1 µM | U-251 18.5 µM | UACC-257 14.2 µM | UACC-62 8.43 µM | UO-31 28.6 µM

COc1cc(Nc2cnc3cc(F)c(F)cc3n2)cc(OC)c1OC
inactive: ACHN > 100 µM | BT-549 > 100 µM | Hs-578T 63.2 µM | M14 > 100 µM | Malme-3M > 100 µM | OVCAR-3 > 100 µM | OVCAR-5 > 100 µM | OVCAR-8 > 100 µM | SF-539 > 100 µM | SK-MEL-28 > 100 µM | U-251 > 100 µM | UACC-257 > 100 µM | UACC-62 > 100 µM | UO-31 > 100 µM

Cc1nc(O)nc(N/N=C/c2ccc(Cl)cc2)c1C(=O)NC(C)(CO)CO
inactive: ACHN > 100 µM | BT-549 > 100 µM | HCC 2998 > 100 µM | Hs-578T > 100 µM | M14 > 100 µM | Malme-3M > 100 µM | OVCAR-3 > 100 µM | OVCAR-5 > 100 µM | OVCAR-8 > 100 µM | RPMI-8226 > 100 µM | SK-MEL-28 > 100 µM | U-251 > 100 µM | UACC-257 > 100 µM | UACC-62 > 100 µM | UO-31 > 100 µM
